From patent publication US20230399411A1, “SPECIFIC ANTIBODY-DRUG-CONJUGATES (ADCS) WITH KSP INHIBITORS AND ANTI-CD123-ANTIBODIES” (Bayer Pharma Aktiengesellschaft, priority 2016, published 2023)

Legend:
[1] = Caco-2 flux assay for cell permeability; format: in vitro ADME; settings: human; for Papp B→A at 2 h: Caco-2, 2 hours
Procedure: The cell permeability of a substance can be investigated by means of in vitro testing in a flux assay using Caco-2 cells [M. D. Troutman and D. R. Thakker, Pharm. Res. 20 (8), 1210-1224 (2003)]. For this purpose, the cells were cultured for 15-16 days on 24-well filter plates. For the determination of permeation, the respective test substance was applied in a HEPES buffer to the cells either apically (A) or basally (B) and incubated for 2 hours. After 0 hours and after 2 hours, samples were taken from the cis and trans compartments. The samples were separated by HPLC (Agilent 1200, Böblingen, Germany) using reverse phase columns. The HPLC system was coupled via a Turbo Ion Spray Interface to a Triple Quadropol mass spectrometer API 4000 (AB SCIEX Deutschland GmbH, Darmstadt, Germany). The permeability was evaluated on the basis of a Papp value, which was calculated using the formula published by Schwab et al. [D. Schwab et al., J. Med. Chem. 46, 1716-1725 (2003)]. […] Of critical importance for toxophores which are released intracellularly is the permeability from B to A [Papp (B-A)] and the ratio of Papp (B-A) to Papp (A-B) (efflux ratio): the lower this permeability, the slower the active and passive transport processes of the substance through the monolayer of Caco-2 cells.

NCI-H292 cells = assay: MTT assay, cytotoxicity of metabolites; format: cell-based; settings: Homo sapiens, 96 h incubation
Procedure: The analysis of the cytotoxic effects of the anti-CD123 ADCs and the corresponding metabolites was carried out with various cell lines:
NCI-H292: human mucoepidermoid lung carcinoma cells, ATCC-CRL-1848, standard medium: RPMI 1640 (Biochrom; #FG1215, stab. glutamine)+10% FCS (Biochrom; #S0415).
The cells were cultivated according to the standard method using the growth media listed under C-1. The test is carried out by detaching the cells with a solution of Accutase in PBS (Biochrom AG #L2143; in case of adherent cell), pelleting, resuspending in culture medium, counting and sowing into a 96-well culture plate with white bottom (Costar #3610) (NCI H292: 2500 cells/well; MOLM-13: 2000 cells/well; THP-1: 8000 cells/well; NB4: 7000 cells/well; KG-1: 5000 cells/well, MV-4-11: 5000 cells/well in a total volume of 100 μl). The cells were then incubated in an incubator at 37° C. and 5% carbon dioxide. After 6 h or 48 h (adherent cells) the medium was replaced. […] After 96 h, the cell proliferation was detected using the MTT assay (ATCC, Manassas, Virginia, USA, catalogue No. 30-1010K). […] The dye formed was detected at 570 nm (Infinite M1000 pro, Tecan). The measured data were used to calculate the IC50 of the growth inhibition using the DRC (dose response curve). […]

Molecule `CC(C)(C)[C@H](c1cc(-c2cc(F)ccc2F)cn1Cc1ccccc1)N(CCCN)C(=O)CSC[C@H](NC(=O)CCOCCOCCOCCOCCNC(=O)CNC(=O)C(CC(=O)O)SC[C@H](N)C(=O)O)C(=O)O.O=C(O)C(F)(F)F.O=C(O)C(F)(F)F` (stereo partly drawn) [Example M21, (2R,24S,27R)-27-Amino-2-[({2-[(3-aminopropyl){(1R)-1-[1-benzyl-4-(2,5-difluorophenyl)-1H-pyrrol-2-yl]-2,2-dimethylpropyl}amino]-2-oxoethyl}sulphanyl)methyl]-24-(carboxymethyl)-4,20,23-trioxo-7,10,13,16-tetraoxa-25-thia-3,19,22-triazaoctacosane-1,28-dioic acid/trifluoroacetic acid (1:2)] has a Papp B→A at 2 h [1] of 0.05 ×10⁻⁶ cm/s and an efflux ratio at 2 h ([1]; Caco-2, Papp (B-A) to Papp (A-B)) of 1.5.

For `CC(C)(C)[C@H](c1cc(-c2cc(F)ccc2F)cn1Cc1ccccc1)N(CCCN)C(=O)CSC[C@H](NC(=O)CCOCCOCCOCCOCCNC(=O)CNC(=O)CC(SC[C@H](N)C(=O)O)C(=O)O)C(=O)O.O=C(O)C(F)(F)F.O=C(O)C(F)(F)F` (stereo partly drawn) [Example M20, (1R,4R,27R,33R)-1-Amino-32-(3-aminopropyl)-33-[1-benzyl-4-(2,5-difluorophenyl)-1H-pyrrol-2-yl]-34,34-dimethyl-6,9,25,31-tetraoxo-13,16,19,22-tetraoxa-3,29-dithia-7,10,26,32-tetraazapentatriacontane-1,4,27-tricarboxylic acid/trifluoroacetic acid (1:2)], the IC50 (NCI-H292 cells) was 149 nM and the Papp B→A at 2 h [1] was 0.089 ×10⁻⁶ cm/s.
